Values quoted from earlier work, collected in US6342520B1, “Locally injectable chemotherapeutics” (priority 2000, dated 2002).

Conditions: Phase II clinical trials, administration by general circulation

CC(=O)OC[C@]12CCC(C)=C[C@H]1O[C@@H]1[C@H](O)[C@@H](OC(C)=O)[C@@]2(C)[C@]12CO2 [Anguidine]
hematologic toxicity: considerable hematologic toxicity | overall tumor response rate: low
